From US7473702B2, “Substituted gamma lactams as therapeutic agents” (Allergan, Inc., priority 2005, dated 2009) come the findings set out here.

Experiment [1] deals with T1, EP2 (Homo sapiens, UniProt P43116). The experiment in a line: EP2 cAMP EC50. Format: cell-based. From the text:
(§1) U.S. patent application Ser. No. 11/553,143, filed on Oct. 26, 2006, incorporated by reference herein, describes the methods used to obtain the in vitro data in the table below.

Another experiment concerns the target T2, hEP3A (Homo sapiens, UniProt P43115).
T2 sequence (P43115 1-390): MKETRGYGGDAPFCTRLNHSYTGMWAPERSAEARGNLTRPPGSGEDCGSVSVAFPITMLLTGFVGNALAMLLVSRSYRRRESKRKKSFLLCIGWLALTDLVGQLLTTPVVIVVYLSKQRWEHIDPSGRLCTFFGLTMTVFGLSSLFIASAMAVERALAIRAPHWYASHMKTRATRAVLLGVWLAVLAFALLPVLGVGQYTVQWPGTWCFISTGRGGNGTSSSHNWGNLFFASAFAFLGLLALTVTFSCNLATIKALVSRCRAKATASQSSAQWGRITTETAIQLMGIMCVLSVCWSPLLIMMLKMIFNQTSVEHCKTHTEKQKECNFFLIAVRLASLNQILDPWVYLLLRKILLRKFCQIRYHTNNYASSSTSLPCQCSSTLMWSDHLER
The experiment can be described thus: Other receptors functional EC50, hEP3A. Format: cell-based.
Source text: as §1

The next experiment concerns the target T3, hDP (Homo sapiens, UniProt Q13258).
T3 sequence (Q13258 1-359): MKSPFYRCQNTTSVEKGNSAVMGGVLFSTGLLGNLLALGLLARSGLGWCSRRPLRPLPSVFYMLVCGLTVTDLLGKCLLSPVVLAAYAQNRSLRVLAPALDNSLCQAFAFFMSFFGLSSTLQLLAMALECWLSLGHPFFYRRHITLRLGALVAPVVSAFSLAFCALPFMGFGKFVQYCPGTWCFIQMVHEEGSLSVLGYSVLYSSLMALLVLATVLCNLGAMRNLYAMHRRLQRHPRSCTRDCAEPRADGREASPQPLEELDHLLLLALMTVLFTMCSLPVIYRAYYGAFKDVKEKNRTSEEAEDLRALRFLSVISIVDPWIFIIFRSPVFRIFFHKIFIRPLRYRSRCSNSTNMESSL
The experiment can be described thus: Other receptors functional EC50, hDP. Format: cell-based.
Source text: as §1

The target of experiment [2] is T1, EP2. The experiment in a line: EP2 binding Ki.
Source text: as §1

The target of experiment [3] is T1, EP2. The experiment can be described thus: EP2 flipr EC50. Format: cell-based.
Source text: as §1

The target of a further experiment is T4, hTP (Homo sapiens, UniProt P21731).
T4 sequence (P21731 1-343): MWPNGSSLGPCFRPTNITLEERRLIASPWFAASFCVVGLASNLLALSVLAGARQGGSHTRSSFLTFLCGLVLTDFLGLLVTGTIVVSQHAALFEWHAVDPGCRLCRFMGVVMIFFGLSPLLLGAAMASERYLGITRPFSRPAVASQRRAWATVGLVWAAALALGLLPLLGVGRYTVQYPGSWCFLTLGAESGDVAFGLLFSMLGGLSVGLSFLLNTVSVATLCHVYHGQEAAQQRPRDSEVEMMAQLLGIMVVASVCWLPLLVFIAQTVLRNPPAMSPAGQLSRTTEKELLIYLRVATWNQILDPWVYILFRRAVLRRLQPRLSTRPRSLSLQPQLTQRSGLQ
The experiment in a line: Other receptors functional EC50, hTP. Format: cell-based.
Source text: as §1

SMILES strings stand for the structures.

T1 sequence (P43116 whole entry): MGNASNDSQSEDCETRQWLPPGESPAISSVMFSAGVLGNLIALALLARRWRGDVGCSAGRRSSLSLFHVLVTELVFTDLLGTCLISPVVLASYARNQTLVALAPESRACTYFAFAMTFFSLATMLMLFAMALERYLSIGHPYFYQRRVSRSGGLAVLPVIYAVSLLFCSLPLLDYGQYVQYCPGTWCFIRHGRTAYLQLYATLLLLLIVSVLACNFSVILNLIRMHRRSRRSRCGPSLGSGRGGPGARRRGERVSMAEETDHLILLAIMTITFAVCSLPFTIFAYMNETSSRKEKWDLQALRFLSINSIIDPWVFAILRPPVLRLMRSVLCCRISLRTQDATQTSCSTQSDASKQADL

Regarding `CCCCC[C@H](O)c1ccc(N2C(=O)CC[C@@H]2C/C=C/c2ccc(C(=O)O)s2)cc1`, the 50% effective concentration (EC50) (commonly the concentration giving half of the maximal effect) on EP2 [1] is 73 nM; on hEP3A it was 2070 nM; on hDP, above 10000 nM. On EP2 [2], the Ki (as a rule, a measure of affinity in units of concentration, obtained from inhibition or displacement) was determined as 1420 nM.

For `CCCCC[C@H](O)c1ccc(N2C(=O)CC[C@@H]2/C=C\Cc2ccc(C(=O)O)s2)cc1`, the EC50 on EP2 [1] was 19 nM; on EP2 [3], 23 nM; at hDP, above 10000 nM. Besides, the affinity at EP2 [2] corresponds to a Ki of 824 nM.

On to `CCCCCC(O)c1ccc(N2C(=O)CC[C@@H]2C/C=C\c2nc(C(=O)O)cs2)cc1` (stereo partly drawn), for which the EC50 on EP2 [1] is 0.75 nM; at hEP3A it was 43 nM; at EP2 [3], 17 nM; on hDP it was 1850 nM. The molecule also had a Ki on EP2 [2] of 43 nM.

In the case of `CCCCCC(O)c1ccc(N2C(=O)CC[C@@H]2C/C=C/c2nc(C(=O)O)cs2)cc1` (stereo partly drawn), the EC50 on hTP is above 10000 nM; at EP2 [1] it was 24 nM; on hEP3A, 2980 nM; on hDP it was above 10000 nM. In addition, on EP2 [2], the affinity corresponds to a Ki of 2180 nM.
